The record followed here is US11905417B2, “Anthraquinone compound, liquid crystal composition for dimming including said compound, and dimming element” (Nippon Kayaku Kabushiki Kaisha, priority 2020, dated 2024).

SMILES strings stand for the structures.

A short description of data set [1]: Evaluation of solubility of compounds in liquid crystal material (maximum dissolution amount, visual observation). It is filed as physicochemical. Particulars: in liquid crystal material (cyanobiphenyl/terphenyl mixture), room temperature, 0.5% steps, tested up to about 4.5% by mass. Here is the method: (§1) When a uniform composition with no insoluble matter was obtained, a procedure of further adding 0.003 parts of the compound represented by No. 2, stirring the mixture at room temperature for 1 hour, and then visually observing the appearance of the composition was repeated until a dissolution amount (see the following) reached about 4.5% by mass. The solubility of the compound represented by No. 2 in the liquid crystal material was evaluated by the maximum addition amount at which a uniform composition with no insoluble matter was obtained.
When a uniform composition with no insoluble matter was obtained even after 0.024 parts of the compound were added, the maximum dissolution amount was provisionally determined to be “about 4.5% by mass”.

Data set [2] in a line: Evaluation of solubility of compounds in liquid crystal material, photocurable compound, and photopolymerization initiator. Particulars: room temperature, 0.5% steps, tested up to about 3.5% by mass. It is filed as physicochemical. The procedure:
as §1, with “0.005” for “0.003”, “3.5%” for “4.5%”, “material, the photocurable compound, and the photopolymerization initiator” for “material”
When a uniform composition with no insoluble matter was obtained even after 0.030 parts of the compound were added, the maximum dissolution amount was provisionally determined to be “about 3.5% by mass”.

The nature of data set [3]: Evaluation of contrast of compositions at maximum dissolution amount encapsulated in a cell (C=Ky/Kz at λmax). The settings on record: absorption peak wavelength of the composition in the cell. An excerpt: The compositions obtained in Examples 3 and 4 and Comparative Examples 6 to 10 were each encapsulated in an element made of two upper and lower glass substrates each having a transparent electrode with an inter-substrate gap of 15 μm, in which the surface of each glass substrate in contact with a liquid crystal was rubbed with a polyamide-based resin and was subjected to a homogeneous orientation treatment. When no voltage was applied in the element subjected to the orientation treatment, the liquid crystal was in a homogeneously oriented state, and dye molecules were also in the same orientation according to the host liquid crystal.
Each of the uniform compositions with no insoluble matter, which were obtained in the above-mentioned “Evaluation of Solubilities of Compounds of Examples according to Present Invention and Compounds of Comparative Examples in Liquid Crystal Material” and which were each made in the maximum dissolution amount, was encapsulated in a cell. In the cell in which each of the uniform compositions was encapsulated, a transmittance (Ky) of linearly polarized light parallel to the orientation direction and a transmittance (Kz) of polarized light perpendicular to the orientation direction were measured, and a contrast (C) at its absorption peak wavelength (λmax) was determined from the following expression. C=Ky/Kz

With `CC(C)(C)c1ccc(Sc2cccc3c2C(=O)c2cccc(Sc4ccc5ccccc5c4)c2C3=O)cc1` [Formula(A)], the Maximum dissolution amount in data set [1] was 1.0% by mass; in data set [2] it was 0.5% by mass. In addition, the “λmax(nm)” value in data set [3] was 462 nm.
For `CC(CC(=O)Oc1ccc(Sc2cccc3c2C(=O)c2cccc(Sc4ccc(OC(=O)CC(C)CC(C)(C)C)cc4)c2C3=O)cc1)CC(C)(C)C` (stereo not drawn) [Formula(D)], the values for the Maximum dissolution amount in data set [1] and in data set [2] were 2.0% by mass and 1.0% by mass, respectively. Moreover, the “λmax(nm)” value in data set [3] was 462 nm.
As to `CCCCCC(C)CCC(=O)Oc1ccc(Sc2cccc3c2C(=O)c2cccc(Sc4ccc(OC(=O)CCC(C)CCCCC)cc4)c2C3=O)cc1` (stereo not drawn) [Formula(E)], the Maximum dissolution amount is listed as 2.0% by mass in data set [1] and 1.0% by mass in data set [2]. Further, the “λmax(nm)” value in data set [3] amounted to 460 nm.
Regarding `CCCCCCCCC(CCCCCC)C(=O)Oc1ccc(Sc2cccc3c2C(=O)c2cccc(Sc4ccc(OC(=O)C(CCCCCC)CCCCCCCC)cc4)c2C3=O)cc1` (stereo not drawn) [No.2], the Maximum dissolution amount came to 4.5% by mass in data set [1] and 3.5% by mass in data set [2]. Further, the “λmax(nm)” value in data set [3] was found to be 460 nm.
Taken in the same sequence, the figures for `CCCCC(CC)C(=O)Oc1ccc(Sc2cccc3c2C(=O)c2cccc(Sc4ccc(OC(=O)C(CC)CCCC)cc4)c2C3=O)cc1` (stereo not drawn) [No.3] were 3.5% by mass, 3.5% by mass and 462 nm.
